PubChem BioAssay AID1259407 (Chemical Carcinogenesis Research Information System (CCRIS), 2018)
The source made the active and inactive calls. No rule for the calls is given here.

System: CCRIS mutagenicity, Ames/micronucleus/aberration tests
Assay: CCRIS mutagenicity studies
[1] = Test System: AMES SALMONELLA TYPHIMURIUM, Strain/Indicator: TA98, Metabolic Activation: NONE, Method: PREINCUBATION
[2] = Test System: AMES SALMONELLA TYPHIMURIUM, Strain/Indicator: TA100, Metabolic Activation: NONE, Method: PREINCUBATION
[3] = Test System: AMES SALMONELLA TYPHIMURIUM, Strain/Indicator: TA1537, Metabolic Activation: NONE, Method: PREINCUBATION
[4] = Test System: AMES SALMONELLA TYPHIMURIUM, Strain/Indicator: TA100, Metabolic Activation: NONE, Method: STANDARD PLATE

CCCCCCCCOC(=O)c1ccccc1C(=O)OCCCCCCCC
mutagenic call (Test System: AMES SALMONELLA TYPHIMURIUM, Strain/Indicator: TA98, Metabolic Activation: HAMSTER, LIVER, S-9, AROCLOR 1254 (10%), Method: PREINCUBATION): inactive; negative | mutagenic call [1]: inactive; negative | mutagenic call (Test System: AMES SALMONELLA TYPHIMURIUM, Strain/Indicator: TA98, Metabolic Activation: RAT, LIVER, S-9, AROCLOR 1254 (10%), Method: PREINCUBATION): inactive; negative | mutagenic call (Test System: AMES SALMONELLA TYPHIMURIUM, Strain/Indicator: TA100, Metabolic Activation: HAMSTER, LIVER, S-9, AROCLOR 1254 (10%), Method: PREINCUBATION): inactive; negative | mutagenic call [2]: inactive; negative | mutagenic call (Test System: AMES SALMONELLA TYPHIMURIUM, Strain/Indicator: TA100, Metabolic Activation: RAT, LIVER, S-9, AROCLOR 1254 (10%), Method: PREINCUBATION): inactive; negative | mutagenic call (Test System: AMES SALMONELLA TYPHIMURIUM, Strain/Indicator: TA1535, Metabolic Activation: HAMSTER, LIVER, S-9, AROCLOR 1254 (10%), Method: PREINCUBATION): inactive; negative | mutagenic call (Test System: AMES SALMONELLA TYPHIMURIUM, Strain/Indicator: TA1535, Metabolic Activation: NONE, Method: PREINCUBATION): inactive; negative | mutagenic call (Test System: AMES SALMONELLA TYPHIMURIUM, Strain/Indicator: TA1535, Metabolic Activation: RAT, LIVER, S-9, AROCLOR 1254 (10%), Method: PREINCUBATION): inactive; negative | mutagenic call (Test System: AMES SALMONELLA TYPHIMURIUM, Strain/Indicator: TA1537, Metabolic Activation: HAMSTER, LIVER, S-9, AROCLOR 1254 (10%), Method: PREINCUBATION): inactive; negative | mutagenic call [3]: inactive; negative | mutagenic call (Test System: AMES SALMONELLA TYPHIMURIUM, Strain/Indicator: TA1537, Metabolic Activation: RAT, LIVER, S-9, AROCLOR 1254 (10%), Method: PREINCUBATION): inactive; negative

Oc1ccc2c(c1)sc1ccccc12
mutagenic call (Test System: CHINESE HAMSTER OVARY, Strain/Indicator: CHO-K1-BH4 (HGPRT)/6-THIOGUANINE, Metabolic Activation: RAT, LIVER, S-9, AROCLOR (4%)): active; positive

C#CCc1ccc(COC(=O)C2C(C=C(C)C)C2(C)C)o1 (stereo unspecified)
mutagenic call (Test System: AMES SALMONELLA TYPHIMURIUM, Strain/Indicator: TA98): inactive; negative | mutagenic call (Test System: AMES SALMONELLA TYPHIMURIUM, Strain/Indicator: TA98, Metabolic Activation: NONE): inactive; negative | mutagenic call (Test System: AMES SALMONELLA TYPHIMURIUM, Strain/Indicator: TA100): active; positive | mutagenic call (Test System: AMES SALMONELLA TYPHIMURIUM, Strain/Indicator: TA100, Metabolic Activation: NONE): inactive; negative

O=C1NC(=O)c2ccccc21
mutagenic call (Test System: Ames Salmonella typhimurium, Strain/Indicator: TA98, Metabolic Activation: None, Method: Preincubation): inactive; negative | mutagenic call (Test System: Ames Salmonella typhimurium, Strain/Indicator: TA98, Metabolic Activation: Rat, Liver, S-9, Phenobarbital and 5,6-benzoflavone, Method: Preincubation): inactive; negative | mutagenic call (Test System: Ames Salmonella typhimurium, Strain/Indicator: TA100, Metabolic Activation: None, Method: Preincubation): inactive; negative | mutagenic call (Test System: Ames Salmonella typhimurium, Strain/Indicator: TA100, Metabolic Activation: Rat, Liver, S-9, Phenobarbital and 5,6-benzoflavone, Method: Preincubation): inactive; negative | mutagenic call (Test System: Ames Salmonella typhimurium, Strain/Indicator: TA1535, Metabolic Activation: None, Method: Preincubation): inactive; negative | mutagenic call (Test System: Ames Salmonella typhimurium, Strain/Indicator: TA1535, Metabolic Activation: Rat, Liver, S-9, Phenobarbital and 5,6-benzoflavone, Method: Preincubation): inactive; negative | mutagenic call (Test System: Ames Salmonella typhimurium, Strain/Indicator: TA1537, Metabolic Activation: None, Method: Preincubation): inactive; negative | mutagenic call (Test System: Ames Salmonella typhimurium, Strain/Indicator: TA1537, Metabolic Activation: Rat, Liver, S-9, Phenobarbital and 5,6-benzoflavone, Method: Preincubation): inactive; negative | mutagenic call (Test System: E. coli, Strain/Indicator: WP2uvrA/pKM101, Metabolic Activation: None, Method: Preincubation): inactive; negative | mutagenic call (Test System: E. coli, Strain/Indicator: WP2uvrA/pKM101, Metabolic Activation: Rat, Liver, S-9, Phenobarbital and 5,6-benzoflavone, Method: Preincubation): inactive; negative

Cc1c(/C=N/OCc2ccc(Cl)cc2Cl)c2cc([N+](=O)[O-])ccc2n1Cc1ccc(Cl)cc1
mutagenic call (Test System: AMES SALMONELLA TYPHIMURIUM, Strain/Indicator: TA98, Metabolic Activation: NONE, Method: STANDARD PLATE): inactive; negative | mutagenic call (Test System: AMES SALMONELLA TYPHIMURIUM, Strain/Indicator: TA98, Metabolic Activation: RAT, LIVER, S-9, PHENOBARBITAL AND BETA-NAPHTHOFLAVONE, Method: STANDARD PLATE): inactive; negative | mutagenic call [4]: inactive; negative | mutagenic call (Test System: AMES SALMONELLA TYPHIMURIUM, Strain/Indicator: TA100, Metabolic Activation: RAT, LIVER, S-9, PHENOBARBITAL AND BETA-NAPHTHOFLAVONE, Method: STANDARD PLATE): inactive; negative

NC(=S)NNC(N)=S
mutagenic call (End Point: IN VITRO CHROMOSOMAL ABERRATIONS, Test System: CHINESE HAMSTER OVARY CELLS, Metabolic Activation: RAT, LIVER, S-9, AROCLOR 1254): inactive; negative

O=C1OCC(C(Br)Br)=C1Br
mutagenic call [4]: active; positive

O=[N+]([O-])c1ccc(S(=O)(=O)O)cc1
mutagenic call [1]: inactive; negative | mutagenic call (Test System: AMES SALMONELLA TYPHIMURIUM, Strain/Indicator: TA98, Metabolic Activation: RAT, LIVER, S-9, KANECHLOR 500, Method: PREINCUBATION): inactive; negative | mutagenic call [2]: inactive; negative | mutagenic call (Test System: AMES SALMONELLA TYPHIMURIUM, Strain/Indicator: TA100, Metabolic Activation: RAT, LIVER, S-9, KANECHLOR 500, Method: PREINCUBATION): inactive; negative

Nc1nc(-c2ccccc2)c(Br)c(=O)[nH]1
mutagenic call (Test System: CHINESE HAMSTER OVARY, Strain/Indicator: CHO (HGPRT), Metabolic Activation: RAT, LIVER, S-9, AROCLOR 1254): active; positive | mutagenic call (Test System: MOUSE LYMPHOMA, Strain/Indicator: L5178Y (TK+/TK-), Metabolic Activation: NONE, Method: SUSPENSION/PLATE): inactive; negative | mutagenic call (Test System: MOUSE LYMPHOMA, Strain/Indicator: L5178Y (TK+/TK-), Metabolic Activation: RAT, LIVER, S-9, AROCLOR 1254, Method: SUSPENSION/PLATE): inactive; negative

BrCCCCCBr
mutagenic call [1]: inactive; negative | mutagenic call (Test System: AMES SALMONELLA TYPHIMURIUM, Strain/Indicator: TA98, Metabolic Activation: RAT LIVER S-9, PHENOBARBITAL AND BETA-NAPHTHOFLAVONE, Method: PREINCUBATION): inactive; negative | mutagenic call [2]: inactive; negative | mutagenic call (Test System: AMES SALMONELLA TYPHIMURIUM, Strain/Indicator: TA100, Metabolic Activation: RAT LIVER S-9, PHENOBARBITAL AND BETA-NAPHTHOFLAVONE, Method: PREINCUBATION): inactive; negative | mutagenic call [3]: inactive; negative | mutagenic call (Test System: AMES SALMONELLA TYPHIMURIUM, Strain/Indicator: TA1537, Metabolic Activation: RAT LIVER S-9, PHENOBARBITAL AND BETA-NAPHTHOFLAVONE, Method: PREINCUBATION): inactive; negative
